Test results as given in patent US20260092085A1, “SYNTHETIC TRIPLEX PEPTIDE NUCLEIC ACID-BASED INHIBITORS FOR CANCER THERAPY” (University of Connecticut, priority 2022, published 2026).
{RR} = two arginine residues at the PNA terminus

Legend:
PBMC cells = test: Safety assessment by trypan blue assay in PBMC; type: cell-based; conditions: 500-4000 nM, 48 hours
Protocol: Control is PBS treated PBMC cells. n=3, data represented as mean±standard error mean (SEM).
Safety assessment by trypan blue assay […] blood mononuclear cells (PBMC) (ATCC® PCS-800-011™) were purchased from ATCC (Virginia, USA). The cells were regularly tested for Mycoplasma contamination using MycoAlert™ Mycoplasma detection kit (Lonza). All the cells used in the experiment were passaged less than 2 times. 10,000 PBMC cells were seeded in a 96 well plate. The cells were treated with 500 nM, 1000 nM, 2000 nM and 4000 nM PNA-155 and γtcPNA-155 for 48 hrs in an incubator. The dead cells were examined with trypan blue and further counted using an automated cell counter (Bio-rad).

miR-155 = test: Gel shift binding assay (PAGE, SYBR Gold)
Protocol: (1D) Dose-dependent gel shift binding assay of target miR-155 ([…]) with PNA-155 and γtcPNA-155 at indicated concentrations. The samples were prepared in the physiological buffer (2 mM MgCl2, 150 mM KCl, 10 mM NaPi) and incubated for 24 hours at physiological temperature (37° C.) followed by PAGE separation and visualization of bands by SYBr® Gold staining. […] (iii) γtcPNA-155 binding with the target miR-155 by Watson Crick and Hoogsteen base pairing. (iv) γtcPNA-155 binding with the miR-155 by Watson-Crick base pairing. (v) Clamp segment of γtcPNA-155 binding with the target miR-155 by Hoogsteen base pairing.
Gel shift assay: Different concentration of PNA-155 or gamma tcPNA-155 were made in physiological buffer (2 mM MgCl2, 150 mM KCl, 10 mM NaPi) and incubated overnight at 37° C. with 1 μM DNA-155 target. The samples were run through 8% Polyacrylamide gel electrophoresis (PAGE) gel in IX TBE buffer at 120 volts for 35 mins. The gel was stained with SyBr Gold for two mins and visualized using Gel Doc™ EZ Imager (Bio-rad). […]
Next, we evaluated the binding affinity of γtcPNA-155 and PNA-155 with the miR-155 target by polyacrylamide gel electrophoresis (PAGE) based protocols (FIG. 1D). We incubated PNA-155 and γtcPNA-155 with miR-155 at indicated concentrations in physiological buffer and temperature and assessed the binding by PAGE followed by SYBR gold staining. […]

U2932 tumors = test: Immunostaining of Caspase-3 and Ki67 in treated U2932 tumors; type: in vivo, NSG mice; conditions: U2932 xenograft
Protocol: FIGS. 17A-D show in vivo studies in U2932 derived xenograft model. (17A) Biodistribution of γtcPNA-155 TAMRA in tumor sections (17B) Tumor volume fold change (n=6, data represented as mean±standard error mean (SEM), *p<0.05, **p<0.01, multiple t-tests one per row was used for statistical analysis). Asterisk denotes the analysis was performed relative to Scr-γtcPNA-155. Diamond symbol denotes the analysis was performed relative to PNA-155. (17C) Representative images showing the effects of Scr-γtcPNA-155, PNA-155, γPNA-155 and γtcPNA-155 on Caspase-3 immunostaining of tumor (magnification; ×20). Autofluorescence (AF) at 514 nm was used to show the tumor. Scale bar=[…]. (17D) Caspase-3 immunostaining quantification, *p<0.05. n=15. The n indicates the number of images.
FIGS. 21A-B show Ki-67 immunostaining (21A) and quantification (21B) in the in vivo treated tumors (n=15), **p<0.01. The n indicates the number of images. Scale bar=50 μm.
Histopathology and immunohistochemistry; The mice were sacrificed by CO2 inhalation when tumor volume reached 2000 mm^3. The tumor and vital organs (e.g., liver, kidney, spleen, lungs, heart) were carefully isolated, weighed, and fixed in the 10% NBF solution. The sections ([…]) of formalin-fixed paraffin-embedded liver and kidney were stained by hematoxylin and eosin for the histological analysis. […]

SUDHL-2 tumors = test: Tumor growth in SUDHL-2 derived xenograft; type: in vivo, NSG mice; conditions: SUDHL-2 xenograft, intratumoral, compared to Scr-γtcPNA-155 and PNA-155 control
Protocol: Data represented as mean±standard error mean (SEM). Scr-γtcPNA-155 (n=4), PNA-155 (n=5), γtcPNA-155 (n=5), *p<0.05, **p<0.01, ***p<0.001, ****p<0.0001. Multiple t-tests one per row was used for statistical analysis.
For SUDHL-2 xenografts, 1×10^7 SUDHL-2 cells suspended in RPMI-1640 medium were injected subcutaneously in the right and left flank of 6-week-old NSG mice. The mice developed a small bump in 2-3 weeks. When the tumor volume reached 100-200 mm^3, the mice were randomly allocated to the treatment group (n=5 per group).
Further, we corroborated our results in the SUDHL-2 derived xenograft mouse model. We injected the SUDHL-2 cells in the right and left flank of mice. After 14-21 days, when the tumor volume reached 100-200 mm3, the mice were randomized into three treatment groups based on uniform tumor volume distribution in each group. […] (FIG. 27)

Row | Substance | viability of PBMC cell lines (PBMC cells) | binding affinity with miR-155 target (comparison) (miR-155) | Caspase-3 positive cells in tumor sections (U2932 tumors) | Ki67 positive cells in tumor sections (U2932 tumors) | tumor growth (SUDHL-2 tumors)
1 | PNA-155: conventional full-length regular PNA (23mer), RR-ACCCCTATCACGATTAGCATTAA-RR, SEQ ID NO: 1 (all peptide nucleic acid (PNA), 5' {RR}, 3' {RR}) [reference compound] | did not notice a significant reduction in viability |  |  |  | 
2 | γtcPNA-155: serine gamma tail-clamp anti-miR-155 PNA, RR-TJJJJ-OOO-ACCCCTATCACGATTAGCATTAA-RR, SEQ ID NO: 3 (all peptide nucleic acid (PNA); serine gamma PNA, tail-clamp TJJJJ via linkers, Arg-Arg at both ends) | did not notice a significant reduction in viability | stronger binding affinity compared to regular PNA-155 | increase | significant decrease | reduced the tumor growth
